Test [1] relates to Erk. Kind of test: p-Erk immunoblot of Ptpn11^D61G/+ hippocampi after lovastatin injection. It counts as in vivo, mice. As to the method:
(§1) FIG. 6 are graphs showing that Lovastatin treatment reverses spatial learning and memory and LTP deficits in Ptpn11^D61G/+ mice. […] Left, Representative immunoblot showing p-Erk (upper) and total Erk (lower) levels in Ptpn11^D61G/+ mice and WT. Hippocampi were dissected 6 hr after the 4th day of lovastatin injection (subcutaneous (s.c.) injections, 10 mg/kg). Right, Bar graph displaying normalized p-Erk levels (mean±s.e.m.). n=7-8 per group. t-test, *P<0.05. […] Two-way ANOVA followed by Bonferroni post-test, WT/Veh vs. Ptpn11^D61G/+/Veh, *P<0.05, **P<0.01; Ptpn11^D61G/+/Veh vs. Ptpn11^D61G/+/Lova, +P<0.05. […] Two-way ANOVA with genotype as between-subjects factor and drug treatment as within-subjects factor, effect of genotype: F(1, 45)=19.79, ***P<0.0001, interaction: F (1,45)=0.4489, P=0.506.
As in AAV-PTPN11^D61G-infected mice, p-Erk levels were increased in Ptpn11^D61G/+ hippocampi (FIG. 6, panel a). […] Importantly, the spatial learning performance of lovastatin-treated Ptpn11^D61G/+ mice was indistinguishable from controls (FIG. 6, panels d, e).
Dissected hippocampi were homogenized in protein lysis buffer (10 mM Tris-Cl pH 6.8, 1.6% SDS) containing protease and phosphatase inhibitor cocktails (Sigma). Supernatants were collected after centrifugation and the protein concentration was determined using a BCA assay kit (Thermo). […]

Test [2] relates to Ptpn11^D61G/+ mice. Kind of test: Morris water maze (hidden platform) in Ptpn11^D61G/+ mice treated with lovastatin. It counts as in vivo. The protocol: as §1
SL327 (Tocris) was dissolved in DMSO (16 mg/ml) and was injected intraperitoneally once daily, 30 min before the water maze experiment at a dose of 32 mg/kg. The volume of a single injection was under 80 μl. Lovastatin (Mevinolin, Sigma) was prepared as previously described^21. Briefly, lovastatin was dissolved in ethanol (final concentration of 8%) and 1N NaOH was added to convert mevinolin to the sodium salt. The pH of the final solution (4 mg/ml) was adjusted to 7.5 with HCl. The Vehicle solution was prepared with the same procedure. Lovastatin was administered daily (subcutaneous injection, 10 mg/kg) for 3 days before the first training day of the water maze and 6 hr before training every day thereafter.
In the hidden platform-version of Morris water maze, mice were trained with two blocks of 2 trials (ITI=1 min) spaced about 45 min apart. In each training trial, mice were released from a different starting position and then were allowed to search for the escape platform for 60 s. The platform was submerged 1 cm under the surface of the water. Once a mouse found the platform, it was left there for 15 s. […] Mice were trained for 5-7 consecutive days. Memory was assessed in probe trials that were given after completion of training as described in the main text. During the probe trial, the platform was removed and the mice were allowed to search for it for 60 s. Data were acquired and analyzed using WaterMaze software (Actimetrics).

The subject of test [3] is hippocampal slices of Ptpn11^D61G/+ mice. Kind of test: 5 TBS-induced LTP in hippocampal slices after systemic administrations of lovastatin. Type of test: in vivo. The protocol:
FIG. 6 are graphs showing that Lovastatin treatment reverses spatial learning and memory and LTP deficits in Ptpn11^D61G/+ mice. […] Left, Representative immunoblot showing p-Erk (upper) and total Erk (lower) levels in Ptpn11^D61G/+ mice and WT. Hippocampi were dissected 6 hr after the 4th day of lovastatin injection (subcutaneous (s.c.) injections, 10 mg/kg). Right, Bar graph displaying normalized p-Erk levels (mean±s.e.m.). n=7-8 per group. t-test, *P<0.05. […] Two-way ANOVA followed by Bonferroni post-test, WT/Veh vs. Ptpn11^D61G/+/Veh, *P<0.05, **P<0.01; Ptpn11^D61G/+/Veh vs. Ptpn11^D61G/+/Lova, +P<0.05. […]
For extracellular recordings of field excitatory postsynaptic potentials (fEPSP), sagittal slices (400 μm) were prepared with a vibratome (VT1000S, Leica) in ice-cold artificial cerebrospinal fluid (ACSF). […] Recording was performed in a submerged chamber perfused with ACSF (32° C.). fEPSPs were recorded with platinum-iridium electrodes placed in the CA1 stratum radiatum. […] Baseline responses were measured with stimulation (0.017 Hz, 0.1 ms pulse duration) at an intensity (typically 20-30 μA) that evoked a response that was approximately one third of the maximum evoked response. […] Initial fEPSP slopes were measured and normalized to the average of baseline (Clampfit 10.2).

Test [4] deals with Nf1^+/− mutant mice. The following applies: previous study (ref. 21); cited from earlier work.
[5] abbreviates: Ptpn11^D61G/+ mice, lovastatin 10 mg/kg s.c.

On to `CC[C@H](C)C(=O)O[C@H]1C[C@@H](C)C=C2C=C[C@H](C)[C@H](CC[C@@H]3C[C@@H](O)CC(=O)O3)[C@H]21` [Lovastatin], for which the “normalized p-Erk levels in hippocampi” value in test [1] (Ptpn11^D61G/+ hippocampi, 6 hr after the 4th day of lovastatin s.c. 10 mg/kg) is on record as “reverses increased Erk activation”. Besides, the “Erk activation in hippocampi” value in test [1] (WT controls, lovastatin s.c. 10 mg/kg) is listed as “did not affect Erk activation in controls”. In addition, the “proximity to the target platform, probe trial” value in test [2] (setting [5]) was determined as 39.82±2.53 cm; in test [2] (WT mice, lovastatin 10 mg/kg s.c.) it was 35.28±3.26 cm. Further, in test [2] (setting [5]), the “time in the target quadrant, probe trial” value is listed as 45.70±4.43%. The “latency to the hidden platform during training sessions” value in test [2] (Ptpn11^D61G/+ mice, lovastatin 10 mg/kg s.c. daily) was “comparable latency to WT mice”. The “preference for the target quadrant, quadrant occupancy analysis” value in test [2] (Ptpn11^D61G/+/Lova group, TQ vs. other quadrants) was “selectively searched for the target quadrant”. Besides, in test [2] (WT animals, lovastatin at the concentration used (10 mg/kg)), the “any measure of learning in WT animals” value is given as “had no effect on any measure of learning”. Besides, the “Average % fEPSP changes (last 10 minutes of recordings), 5 TBS-induced LTP” value was found to be 154.2±6.88% in test [3] (Ptpn11^D61G/+ mice) and 150.7±5.49% in test [3] (WT mice). Also, the “spatial learning problems, attention deficits and pre-pulse inhibition deficits” value in test [4] was “can rescue”.

Source of the values: US10835513B2, “Methods and treatments for the learning and memory deficits associated with Noonan syndrome” (The Regents of the University of California, priority 2013, dated 2020).
